In patent US20110263677A1, “GOS2 MODULATORS IN THE TREATMENT OF ACNE, OF SEBORRHOEIC DERMATITIS OR OF HYPERSEBORRHOEA” (Galderma Research & Development, priority 2008, published 2011):

How the values were obtained:
PPARG = assay: Real-time PCR gene expression in rat epidermal split containing sebaceous glands after topical treatment: PPARG; assay type: in vivo; details: topical administration, 0.3% in acetone, 96 hours, versus carrier group
Description: (§1) Strain: OFA-SD (SPF Caw),
(§2) Number per batch: 40 (8 animals per group) Treatment: Route of administration: topical
(§3) Compound/batch: PPARgamma agonist (rosiglitazone)
(§4) Method of evaluation: The animals are weighed at the beginning and at the end of the study. Skin biopsies are taken (6 samples of skin excised per rat) in order to analyse the expression of the genes (RNA extraction, reverse transcriptase and real-time PCR). The samples are stored overnight at 4° C. before incubation in 1M sodium bromide (NaBr) for 2 hours at 37° C. After incubation, the samples are separated into epidermis or dermis. The epidermal samples are stored at […]. Under these conditions, the sebaceous glands are in the epidermal split. PCRs are carried out, beginning with the cDNAs originating from the epidermal splits containing sebaceous glands from control rats or rats treated with the PPARγ agonist: the mRNA is extracted using a column and quantified. The quality of mRNAs is measured and is represented by the 18S/28S ratio. The results are standardized with respect to 18S, expressed as relative induction versus untreated animals (carrier group). The statistical analysis is obtained using internal software based on a modified Monte Carlo statistical analysis.

PPARG (reference gene) = assay: as above; assay type: in vivo; details: topical administration, 0.3% in acetone, 96 hours
Description: as §1, §2, §3, §4

GOS2 [1] = assay: Real-time PCR gene expression in rat epidermal split containing sebaceous glands after topical treatment: GOS2; assay type: in vivo; details: topical administration, 0.3% in acetone, 96 hours
Description: as §1, §2, §3, §4

HPRT1 (standardizer 1) = assay: Real-time PCR gene expression in rat epidermal split containing sebaceous glands after topical treatment: HPRT1; assay type: in vivo; details: topical administration, 0.3% in acetone, 96 hours
Description: as §1, §2, §3, §4

ACTB (standardizer 2) = assay: Real-time PCR gene expression in rat epidermal split containing sebaceous glands after topical treatment: ACTB; assay type: in vivo; details: topical administration, 0.3% in acetone, 96 hours
Description: as §1, §2, §3, §4

GOS2 [2] = details: mouse liver; Zandbergen et al., 2005; cited from earlier work

Structure (SMILES)	Relative induction (PPARG)	Variation versus carrier after standardization (ΔΔCt) (PPARG (reference gene))	Variation versus carrier after standardization (ΔΔCt) (GOS2 [1])	Relative induction (GOS2 [1]; versus carrier group)	Variation versus carrier after standardization (ΔΔCt) (HPRT1 (standardizer 1))	Relative induction (HPRT1 (standardizer 1); versus carrier group)	Variation versus carrier after standardization (ΔΔCt) (ACTB (standardizer 2))	Relative induction (ACTB (standardizer 2); versus carrier group)	expression of GOS2 (marker for PPARalpha) (GOS2 [2])
COCCOCOc1ccc2cc(C(=O)N(C)Cc3cccc(-c4ccc(CC5SC(=O)NC5=O)cc4)c3)ccc2c1 (stereo not drawn) [PPARgamma agonist, 6-(2-methoxyethoxy-methoxy)naphthalene-2-carboxylic acid [4′-(2,4-dioxothiazolidin-5-ylmethyl)biphenyl-3-ylmethyl]methylamide]	1.65	0.72	2.36	5.24	−0.07	−1.05	0.23	1.18	–
Cc1cccc(Nc2cc(Cl)nc(SCC(=O)O)n2)c1C [Wy14643]	–	–	–	–	–	–	–	–	induced
